Data: patent US12215085B2 (priority 2019, dated 2025)

How the values were obtained:
[1] = system: rats with common carotid artery occlusion-induced vascular dementia; assay: Step-down test, common carotid artery occlusion-induced vascular dementia rats; assay type: in vivo, rat; conditions: step-down method, x ± s, succinate
Excerpt: A rat blood vessel dementia model was made according to the references [ZHAO Xian-lin, FANG Xiu-bin, LI Dong-pei. Establishment of Vascular Dementia Model in Rats, J Chin Med Univ, 2002, 31 (3): 166-168; WANG Yong-yan, Zhang Bo-li, Editor-in-chief. Modern Chinese Medicine Clinic and Research on Vascular Dementia, People's Medical Publishing House, October 2003, First Version 214]: Chloral hydrate 0.4 g/kg was intraperitoneally injected for anesthetizing rats, and bilateral common carotid arteries were isolated and ligated. The animals were fed for 16 weeks, divided into groups on the last 7 days, and administered. The normal control group and the model group were administrated through the intragastric route with distilled water by 0.5 ml/100 g, the positive control group was administrated through the intragastric route with donepezil hydrochloride by 1.75 mg/kg (equivalent to 3.85 times the clinical daily dosage of 5 mg/70 kg), the low, medium and high-dose groups of Crystal Form A of octahydroaminoacridine succinate were administrated through the intragastric route with Crystal Form A of octahydroaminoacridine succinate by 0.7, 1.4 and 2.8 mg/kg (equivalent to 0.96, 1.92 and 3.85 times the clinical daily dosage of 8 mg/70 kg). The water maze test and the step-down test were carried out after continuous administration for 7 days, and the administration was continued during the test period. The water maze test was continuously performed for 7 days, in the first 6 days, in four different water entry points of quadrants 1, 2, 3 and 4, the time, the swimming path length, the orientation angle and the average speed of the rat reaching the platform were measured, meanwhile, the strategy for reaching the platform adopted by rats was observed, on the 7th day, the platform was removed, the number of rats crossing the platform in 2 minutes, the residence time in the platform area, the residence time in the platform quadrants, the percentage of the swimming path length in the platform area quadrants to the total swimming path length, the average speed and the orientation angle were measured. After the water maze test was finished, the step-down test was performed, and the number of electric shocks (or called as the error number) received by each rat within 5 minutes was recorded as the learning performance. The test was performed again after 24 hours, namely, the memory retention test, and the latent period for stepping-down the platform for the first time and the error number in five minutes were recorded. After the step-down test was finished, the brain was taken quickly for pathological examination, and the pathological changes of the hippocampus and the cortex were observed.

[2] = system: rats with beta-amyloid induced senile dementia; assay: Water maze test, beta-amyloid induced senile dementia rats; assay type: in vivo, rat; conditions: succinate; for orientation angle for reaching the platform / speed for reaching the platform / swimming path length for reaching the platform / time for reaching the platform: x ± s
[3] = 0.7 mg/kg intragastric, 0.7 mg/kg
[4] = 1.4 mg/kg intragastric, 1.4 mg/kg
[5] = 2.8 mg/kg intragastric, 2.8 mg/kg
[6] = Day 1, 0.7 mg/kg intragastric, 0.7 mg/kg
[7] = Day 1, 1.4 mg/kg intragastric, 1.4 mg/kg
[8] = Day 1, 2.8 mg/kg intragastric, 2.8 mg/kg
[9] = Day 2, 0.7 mg/kg intragastric, 0.7 mg/kg
[10] = Day 2, 1.4 mg/kg intragastric, 1.4 mg/kg
[11] = Day 2, 2.8 mg/kg intragastric, 2.8 mg/kg
[12] = Day 3, 0.7 mg/kg intragastric, 0.7 mg/kg
[13] = Day 3, 1.4 mg/kg intragastric, 1.4 mg/kg
[14] = Day 3, 2.8 mg/kg intragastric, 2.8 mg/kg
[15] = Day 4, 0.7 mg/kg intragastric, 0.7 mg/kg
[16] = Day 4, 1.4 mg/kg intragastric, 1.4 mg/kg
[17] = Day 4, 2.8 mg/kg intragastric, 2.8 mg/kg
[18] = Day 5, 0.7 mg/kg intragastric, 0.7 mg/kg
[19] = Day 5, 1.4 mg/kg intragastric, 1.4 mg/kg
[20] = Day 5, 2.8 mg/kg intragastric, 2.8 mg/kg
[21] = Day 6, 0.7 mg/kg intragastric, 0.7 mg/kg
[22] = Day 6, 1.4 mg/kg intragastric, 1.4 mg/kg
[23] = Day 6, 2.8 mg/kg intragastric, 2.8 mg/kg

Nc1c2c(nc3c1CCCC3)CCCC2.O=C(O)CCC(=O)O [Crystal Form K, 9-amino-1,2,3,4,5,6,7,8-octahydroacridine succinate]
Day 1, Error number [1, 3]: 9.21 ± 4.52 | Day 2, Error latency [1, 3]: 146.89 ± 60.45 s | Day 2, Error number [1, 3]: 2.49 ± 2.35 | Day 1, Error number [1, 4]: 8.34 ± 3.78 | Day 2, Error latency [1, 4]: 178.46 ± 52.77 s | Day 2, Error number [1, 4]: 3.34 ± 1.49 | Day 1, Error number [1, 5]: 8.46 ± 4.68 | Day 2, Error latency [1, 5]: 192.55 ± 87.48 s | Day 2, Error number [1, 5]: 3.41 ± 1.88 | adopted strategy for reaching the platform (the peripheral type and the random type %) [2, 6]: 95.24% | orientation angle for reaching the platform [2, 6]: 72.32 ± 21.32 ° | speed for reaching the platform [2, 6]: 18.56 ± 4.91 cm/s | swimming path length for reaching the platform [2, 6]: 1196.20 ± 260.35 cm | time for reaching the platform [2, 6]: 70.00 ± 14.73 s | adopted strategy for reaching the platform (the peripheral type and the random type %) [2, 7]: 94.82% | orientation angle for reaching the platform [2, 7]: 71.28 ± 13.47 ° | speed for reaching the platform [2, 7]: 18.24 ± 6.88 cm/s | swimming path length for reaching the platform [2, 7]: 1151.50 ± 313.31 cm | time for reaching the platform [2, 7]: 70.50 ± 14.60 s | adopted strategy for reaching the platform (the peripheral type and the random type %) [2, 8]: 93.17% | orientation angle for reaching the platform [2, 8]: 68.37 ± 20.14 ° | speed for reaching the platform [2, 8]: 19.42 ± 5.93 cm/s | swimming path length for reaching the platform [2, 8]: 1188.50 ± 273.99 cm | time for reaching the platform [2, 8]: 66.90 ± 11.45 s | adopted strategy for reaching the platform (the peripheral type and the random type %) [2, 9]: 79.34% | orientation angle for reaching the platform [2, 9]: 62.15 ± 19.37 ° | speed for reaching the platform [2, 9]: 19.44 ± 9.85 cm/s | swimming path length for reaching the platform [2, 9]: 796.10 ± 179.65 cm | time for reaching the platform [2, 9]: 48.50 ± 15.28 s | adopted strategy for reaching the platform (the peripheral type and the random type %) [2, 10]: 78.13% | orientation angle for reaching the platform [2, 10]: 63.27 ± 10.38 ° | speed for reaching the platform [2, 10]: 20.42 ± 7.24 cm/s | swimming path length for reaching the platform [2, 10]: 772.80 ± 229.71 cm | time for reaching the platform [2, 10]: 51.60 ± 17.26 s | adopted strategy for reaching the platform (the peripheral type and the random type %) [2, 11]: 80.67% | orientation angle for reaching the platform [2, 11]: 66.21 ± 18.35 ° | speed for reaching the platform [2, 11]: 20.89 ± 6.68 cm/s | swimming path length for reaching the platform [2, 11]: 770.70 ± 248.67 cm | time for reaching the platform [2, 11]: 50.40 ± 17.10 s | adopted strategy for reaching the platform (the peripheral type and the random type %) [2, 12]: 80.31% | orientation angle for reaching the platform [2, 12]: 58.23 ± 27.90 ° | speed for reaching the platform [2, 12]: 19.76 ± 10.49 cm/s | swimming path length for reaching the platform [2, 12]: 760.80 ± 277.08 cm | time for reaching the platform [2, 12]: 41.80 ± 11.68 s | adopted strategy for reaching the platform (the peripheral type and the random type %) [2, 13]: 77.37% | orientation angle for reaching the platform [2, 13]: 54.77 ± 18.42 ° | speed for reaching the platform [2, 13]: 20.07 ± 7.36 cm/s | swimming path length for reaching the platform [2, 13]: 737.60 ± 223.46 cm | time for reaching the platform [2, 13]: 53.40 ± 23.24 s | adopted strategy for reaching the platform (the peripheral type and the random type %) [2, 14]: 75.48% | orientation angle for reaching the platform [2, 14]: 52.93 ± 17.44 ° | speed for reaching the platform [2, 14]: 20.00 ± 8.73 cm/s | swimming path length for reaching the platform [2, 14]: 584.50 ± 181.92 cm | time for reaching the platform [2, 14]: 40.50 ± 20.47 s | adopted strategy for reaching the platform (the peripheral type and the random type %) [2, 15]: 70.66% | orientation angle for reaching the platform [2, 15]: 57.32 ± 31.22 ° | speed for reaching the platform [2, 15]: 22.17 ± 13.09 cm/s | swimming path length for reaching the platform [2, 15]: 685.10 ± 319.17 cm | time for reaching the platform [2, 15]: 38.10 ± 22.41 s | adopted strategy for reaching the platform (the peripheral type and the random type %) [2, 16]: 71.34% | orientation angle for reaching the platform [2, 16]: 51.48 ± 11.38 ° | speed for reaching the platform [2, 16]: 20.53 ± 11.21 cm/s | swimming path length for reaching the platform [2, 16]: 653.50 ± 321.17 cm | time for reaching the platform [2, 16]: 36.00 ± 20.42 s | adopted strategy for reaching the platform (the peripheral type and the random type %) [2, 17]: 68.99% | orientation angle for reaching the platform [2, 17]: 50.22 ± 18.92 ° | speed for reaching the platform [2, 17]: 21.48 ± 9.09 cm/s | swimming path length for reaching the platform [2, 17]: 544.70 ± 179.35 cm | time for reaching the platform [2, 17]: 37.00 ± 17.54 s | adopted strategy for reaching the platform (the peripheral type and the random type %) [2, 18]: 71.53% | orientation angle for reaching the platform [2, 18]: 54.22 ± 28.34 ° | speed for reaching the platform [2, 18]: 21.30 ± 9.86 cm/s | swimming path length for reaching the platform [2, 18]: 563.90 ± 154.71 cm | time for reaching the platform [2, 18]: 36.20 ± 27.16 s | adopted strategy for reaching the platform (the peripheral type and the random type %) [2, 19]: 69.33% | orientation angle for reaching the platform [2, 19]: 53.62 ± 17.88 ° | speed for reaching the platform [2, 19]: 22.73 ± 17.69 cm/s | swimming path length for reaching the platform [2, 19]: 562.80 ± 280.10 cm | time for reaching the platform [2, 19]: 33.50 ± 21.95 s | adopted strategy for reaching the platform (the peripheral type and the random type %) [2, 20]: 67.59% | orientation angle for reaching the platform [2, 20]: 51.22 ± 20.11 ° | speed for reaching the platform [2, 20]: 21.90 ± 10.66 cm/s | swimming path length for reaching the platform [2, 20]: 481.50 ± 203.96 cm | time for reaching the platform [2, 20]: 30.10 ± 15.85 s | adopted strategy for reaching the platform (the peripheral type and the random type %) [2, 21]: 68.55% | orientation angle for reaching the platform [2, 21]: 52.11 ± 22.00 ° | speed for reaching the platform [2, 21]: 21.55 ± 6.47 cm/s | swimming path length for reaching the platform [2, 21]: 513.30 ± 194.29 cm | time for reaching the platform [2, 21]: 35.90 ± 24.22 s | adopted strategy for reaching the platform (the peripheral type and the random type %) [2, 22]: 65.72% | orientation angle for reaching the platform [2, 22]: 50.65 ± 18.77 ° | speed for reaching the platform [2, 22]: 20.62 ± 7.36 cm/s | swimming path length for reaching the platform [2, 22]: 523.30 ± 182.50 cm | time for reaching the platform [2, 22]: 38.90 ± 22.26 s | adopted strategy for reaching the platform (the peripheral type and the random type %) [2, 23]: 60.14% | orientation angle for reaching the platform [2, 23]: 48.78 ± 16.83 ° | speed for reaching the platform [2, 23]: 18.52 ± 7.78 cm/s | swimming path length for reaching the platform [2, 23]: 540.50 ± 166.77 cm | time for reaching the platform [2, 23]: 36.10 ± 22.34 s
